Several values for one entry are separate records, joined by “and”; a condition that tells them apart may be missing. Equal entries are not always repeated.
Tested on: thermally-induced nociception in rats
Assay: Tail-flick test (thermally-induced nociception) in rats
Type: in vivo, rat (male Sprague-Dawley)
Details: i.p., rat, cut off 10 seconds
Protocol: The purpose of the study was to determine the analgesic effect of tetrahydrocannabinol (Δ-9 THC) alone, Morphine Alone and Δ-9 THC in combination with Morphine on thermal-induced pain was determined. […] The dose response curve for the tail flick test and the analgesic effects of various doses of Morphine alone, Δ-9 THC alone as well as various doses of Δ-9 THC combined with various doses of morphine was determined by comparing pre-injection baseline values to post-injection values.
The tail-flick test was performed according to the following procedure:
Male Sprague-Dawley rats all with an approximate age of 85 to 90 days were each weighed prior to being subjected to any tests, on the day of the experiment. Each rat was only used for one day of experiments, and given only one dose, or dose combination. • 1. Prior to tail-flick test, rats are habituated for three days to handling and the tail flick procedure, without heat exposure. • 2. On the day of the experiment, warm up the tail-flick apparatus (IITC Model 33, Life Science, Woodland Hills, Calif.) for at least 30 minutes. • 3. Adjust the intensity of the lamp so that baseline tail-flick latency for rats is equal to approximately 2.0 seconds. […] Place rat in a mitten and blacken tail with ink approximately 2 inches in length at 1 inch from the tip of the tail. • 6. Place the tail flatly in the groove of the tail-flick apparatus. • 7. Push start to begin heat exposure. The lamp will turn off automatically when the tail flicks from the heat source. • 8. For each rat, a baseline score is determined prior to injection. TFL (tail flick latency) is measured twice in an approximate 15 minute intervals and an average of the two times determines the baseline. • 9. Once the baseline value is determined, TFL is measured, following the injection of drugs, at times 15, 30, 60 and 120 minutes.
All solutions were made on the day of the experiment. Not all of the solutions described below were used in every experiment. The drug combinations vary for each experiment. Each particular combination for an experiment is reported in the corresponding table below.
Each animal is given an injection of morphine that is 1 ml/kg body weight, and an injection of THC or control that is varies by dose and the injection volume is calculated as set forth above.

[1] = Example 10, dose Z: 2 mg/kg morphine 30 minutes after vehicle

Structure (SMILES): CN1CC[C@]23c4c5ccc(O)c4O[C@H]2[C@@H](O)C=C[C@H]3[C@H]1C5 [Morphine]
- Tail Flick Latency (TFL, seconds) 15 min (Example 7, dose Z: vehicle and 2 mg/kg morphine, 15 min): 3.08 s and 3.12 s and 2.28 s
- Tail Flick Latency (TFL, seconds) 30 min (Example 7, dose Z: vehicle and 2 mg/kg morphine): 2.96 s and 2.83 s and 4.73 s
- Tail Flick Latency (TFL, seconds) 60 min (Example 7, dose Z: vehicle and 2 mg/kg morphine, 60 min): 2.22 s and 3.69 s and 3.85 s
- Tail Flick Latency (TFL, seconds) 30 min (Example 9, dose Z: 2 mg/kg Morphine and vehicle): 4.22 s and 4.99 s and 3.00 s
- Tail Flick Latency (TFL, seconds) 60 min (Example 9, dose Z: 2 mg/kg Morphine and vehicle, 60 min): 2.91 s and 5.25 s and 3.97 s
- Tail Flick Latency (TFL, seconds) 120 min (Example 9, dose Z: 2 mg/kg Morphine and vehicle, 120 min): 2.68 s and 4.83 s and 2.67 s
- Tail Flick Latency (TFL, seconds) 15 min (Example 10, dose Z: 2 mg/kg morphine 30 minutes after vehicle, 15 min): 2.41 s and 2.99 s and 3.89 s and 2.36 s and 2.97 s and 3.02 s
- Tail Flick Latency (TFL, seconds) 30 min [1]: 2.90 s and 3.58 s and 4.86 s and 4.07 s and 4.39 s and 3.90 s
- Tail Flick Latency (TFL, seconds) 60 min (Example 10, dose Z: 2 mg/kg morphine 30 minutes after vehicle, 60 min): 3.26 s and 3.14 s and 3.96 s and 3.86 s and 3.99 s and 4.01 s
- Tail Flick Latency (TFL, seconds) 120 min (Example 10, dose Z: 2 mg/kg morphine 30 minutes after vehicle, 120 min): 2.68 s and 2.94 s and 3.18 s and 3.06 s and 3.23 s
- Tail Flick Latency (TFL, seconds) 180 min [1]: 2.15 s and 2.64 s and 2.59 s and 2.18 s and 2.56 s and 2.67 s
- Tail Flick Latency (TFL, seconds) 15 min (dose B: 3 mg/kg morphine and vehicle, 15 min post-injection): 2.38 s and 2.19 s and 2.74 s
- Tail Flick Latency (TFL, seconds) 60 min (dose B: 3 mg/kg morphine and vehicle, 60 min post-injection): 5.36 s and 4.63 s and 4.80 s
- Tail Flick Latency (TFL, seconds) 120 min (dose B: 3 mg/kg morphine and vehicle, 120 min post-injection): 4.02 s and 4.55 s and 3.99 s

Structure (SMILES): CCCCCc1cc(O)c2c(c1)OC(C)(C)[C@@H]1CCC(C)=C[C@@H]21 [Δ-9 THC, delta-9-tetrahydrocannabinol]
- Tail Flick Latency (TFL, seconds) 15 min (Example 6, dose X: saline and 2 mg/kg Δ-9 THC, 15 min): 2.33 s and 1.77 s and 2.10 s
- Tail Flick Latency (TFL, seconds) 15 min (Example 8, dose X: saline and 2 mg/kg Δ-9 THC, 15 min): 2.57 s and 1.88 s and 3.65 s
- Tail Flick Latency (TFL, seconds) 180 min (dose C: saline and 8 mg/kg Δ-9 THC): 10.0 s
- Tail Flick Latency (TFL, seconds) 240 min (dose C: saline and 8 mg/kg Δ-9 THC, 240 min): 9.21 s and 8.98 s and 7.28 s
- Tail Flick Latency (TFL, seconds) 15 min (dose E: saline and 1 mg/kg Δ-9 THC, 15 min): 2.12 s and 2.03 s
- Tail Flick Latency (TFL, seconds) 30 min (dose E: saline and 1 mg/kg Δ-9 THC): 2.56 s and 2.15 s
- Tail Flick Latency (TFL, seconds) 60 min (dose E: saline and 1 mg/kg Δ-9 THC, 60 min): 3.98 s and 5.07 s
- Tail Flick Latency (TFL, seconds) 120 min (dose E: saline and 1 mg/kg Δ-9 THC, 120 min): 4.20 s and 3.09 s
- Tail Flick Latency (TFL, seconds) 30 min (dose G: saline and 4 mg/kg Δ-9 THC): 5.07 s and 5.89 s and 5.10 s
- Tail Flick Latency (TFL, seconds) 60 min (dose G: saline and 4 mg/kg Δ-9 THC, 60 min): 6.24 s and 8.76 s and 6.48 s
